{"source": "paper PMC12029898", "about": "“Cellular Metabolomics Reveals Differences in the Scope of Liver Protection Between Ammonium-Based Glycyrrhizinate and Magnesium Isoglycyrrhizinate” (Metabolites, 2025)", "type_in_all_cases": "cell-based, human", "key": {"[1]": {"tested_on": "LO2 cells", "test": "Cell metabolomics (UPLC-MS/MSe) of APAP-injured LO2 cells, differential metabolites DIAM vs MAGN", "conditions": "600 μM, 48 h", "procedure": "LC-MS/MS analysis was conducted utilizing a Waters Acquity H UPLC system, interfaced with a Q-MS detector (Xevo G3 QTof, Waters, Milford, MA, USA). Chromatographic separation of metabolites was achieved on a BEH C18 Column (1.7 µm, 2.1 mm × 100 mm, Waters), maintained at a temperature of 40 °C. The injector sample chamber was maintained at 4 °C to ensure optimal sample handling. For positive ion analysis, the mobile phase comprised two solvents, 0.1% formic acid in water (solvent A) and acetonitrile (solvent B), delivered at a flow rate of 300 μL/min. The elution gradient was programmed as follows (acetonitrile percentage): 0–1 min 5%, 1–2 min 5–30%, 2–4 min 30–50%, 4–16 min 50–90%, 19–21 min 95%, 21–21.1 min 95–5%, and 21.1–23 min 5%. The capillary, sample cone, and source offset were set as 2.18 kV, 40, and 30. The temperatures of the source and desolvation were 100 and 600 °C. The gas flow of the cone gas and desolvation gas was set as 50 and 800 L/h. For the negative ion mode, the mobile phase consisted of 10 mM ammonium acetate (solvent A) and acetonitrile (solvent B), delivered at a flow rate of 300 μL/min. The elution gradient was programmed as follows: 0–1 min, 5%; 1–3 min, 5–80%; 3–4 min, 80–82%; 4–6 min, 82–88%; 6–25 min, 88–92%; 25–27 min, 92–95%; 27–27.1 min, 95–5%; 27.1–29 min, 5%. The mass spectrometry conditions were similar to those employed in the positive mode, with the exception of the capillary voltage, which was set to 2 kV. All samples were analyzed using an ESI source in MSe full scan mode, with a mass range spanning from m/z 50 to 2000 and a scan time of 0.5 s. Additionally, an automatic calibration system was employed to automatically adjust the MS and MSe parameters every 10 s.\nLO2 cells in the logarithmic growth phase were seeded into a 6-well plate at a density of 3 × 10^4 cells per well and incubated overnight under conditions of 37 °C and 5% CO2. Subsequently, varying concentrations of APAP were introduced, and MONO, DIAM, and MAGN were dissolved in the culture medium prior to their addition to the wells, ensuring a final concentration of 600 μM. The cells were then exposed to these samples for 48 h, following which the culture medium was discarded. The cells were rinsed with pre-cooled PBS at 4 °C and subsequently inactivated by the addition of 80% methanol maintained at a temperature below −20 °C. The cells were scraped off and homogenized using a cell disruptor for 3 min in an ice bath. The homogenized samples were centrifuged at 7500× g for 20 min at 4 °C, and the resultant supernatant was collected and dried using nitrogen gas. The dried samples were redissolved in 80% methanol at −20 °C, vortexed for 1 min, sonicated for 30 s, and then centrifuged again at 7500× g for 20 min at 4 °C. A total of 10 μL was allocated from each sample and mixed as a quality control (QC) sample, while 5 μL of the supernatant was subjected to UPLC-MS/MSe data acquisition on the instrument. The entire procedure was repeated in parallel for all samples, with a total of six replicates performed.\nFirstly, the raw data in the “.raw” format were imported into Progenesis QI software (Waters, Milford, MA, USA). This processing encompassed peak alignment, deconvolution, denoising, and other essential steps, resulting in the extraction of crucial information including retention time, charge-to-mass ratio, compound names, peak areas, and related parameters. To ensure data comparability and accuracy, each peak was then normalized against the total ion intensity, yielding a standardized matrix of retention time, peak area, and m/z values. […] Concurrently, the processed data were imported into SIMCA-P 14.0 software (Umetrics, Umeaa, Sweden) for advanced multivariate statistical analysis, encompassing principal component analysis (PCA) and supervised Orthogonal Partial Least Squares Discriminant Analysis (OPLS-DA). […]"}, "[2]": {"tested_on": "11β-hydroxysteroid dehydrogenase type 1 (11β-HSD1)", "test": "ELISA of protein expression in LO2 cells: 11β-HSD1", "conditions": "16 mM APAP, 600 μM, 48 h", "procedure": "(§1) The expression levels of glutamylcysteine synthetase (GCL), glutathione synthetase (GS), and 11β-hydroxysteroid dehydrogenase type 1 (11β-HSD1) in cells were quantified using commercially available enzyme-linked immunosorbent assay (ELISA) kits (Shanghai Aimeng Youning Biotechnology Co., Ltd., Shanghai, China). Cells in the logarithmic growth phase were seeded into 6-well plates at a density of 3 × 10^4 cells per well, pre-incubated for 24 h, and subsequently exposed to 16 mM APAP with concurrent administration of MONO, DIAM, and MAGN at a final concentration of 600 μM for 48 h. Following three PBS washes, cells were harvested using cell scrapers. Total protein content was determined by the Bradford assay, and samples were normalized to equivalent protein concentrations prior to quantitative analysis of target proteins according to the manufacturer’s protocols."}, "[3]": {"tested_on": "LO2 cells", "test": "Hepatocyte protection rate in APAP-induced LO2 cells (MTT)", "conditions": "for liver protection rate: 16 mM APAP; for hepatocyte protection (therapeutic effect): 16 mM APAP, 200, 400 and 600 μM", "procedure": "Assessment of hepatocyte-protective effects: Cells in the logarithmic growth phase were seeded onto a 96-well plate at a density of 4000 cells per well, followed by incubation at 37 °C in an atmosphere containing 5% CO2. After 24 h of incubation, cells were treated with 16 mM APAP, followed by the addition of MONO, DIAM, and MAGN at three escalating concentrations (200, 400, and 600 μM for each compound). The cell survival rate was quantitatively evaluated using MTT method. The protective efficacy of the compounds was then calculated employing the formula outlined below.(1) Hepatocytes protection rate=AGlycyrrhizinate−AAPAP/Anormal−AAPAP×1"}, "[4]": {"tested_on": "glutamylcysteine synthetase (GCL)", "test": "ELISA of protein expression in LO2 cells: GCL", "conditions": "16 mM APAP, 600 μM, 48 h", "procedure": "as §1"}, "[5]": {"tested_on": "glutathione synthetase (GS)", "test": "ELISA of protein expression in LO2 cells: GS", "conditions": "16 mM APAP, 600 μM, 48 h", "procedure": "as §1"}}}
{"smiles": "CC1(C)[C@@H](O[C@H]2O[C@H](C(=O)O)[C@@H](O)[C@H](O)[C@H]2O[C@@H]2O[C@H](C(=O)O)[C@@H](O)[C@H](O)[C@H]2O)CC[C@]2(C)[C@H]3C(=O)C=C4[C@@H]5C[C@@](C)(C(=O)O)CC[C@]5(C)CC[C@@]4(C)[C@]3(C)CC[C@@H]12", "note": "[DIAM, diammonium glycyrrhizinate]", "values": [{"measurement": "FC of 3-(10Z)-10-Heptadecen-1-ylphenol", "setting": "[1]; highest group DIAM vs MAGN", "value": 1.68}, {"measurement": "FC of 7-Dehydrocholesterol benzoate", "setting": "[1]; highest group DIAM vs MAGN", "value": ">10"}, {"measurement": "FC of 8-Demethyl meiqx", "setting": "[1]; highest group DIAM vs MAGN", "value": 1.92}, {"measurement": "FC of 25-Hydroxyvitamin D2", "setting": "[1]; highest group DIAM vs MAGN", "value": 3.85}, {"measurement": "FC of Ammonium glycyrrhizate", "setting": "[1]; highest group DIAM vs MAGN", "value": 2.12}, {"measurement": "FC of Argiotoxin 659", "setting": "[1]; highest group DIAM vs MAGN", "value": 2.98}, {"measurement": "FC of Butyroin", "setting": "[1]; highest group DIAM vs MAGN", "value": 1.23}, {"measurement": "FC of C14 Ceramide", "setting": "[1]; highest group DIAM vs MAGN", "value": 1.20}, {"measurement": "FC of C16 Lactosylceramide (d18:1/16:0)", "setting": "[1]; highest group DIAM vs MAGN", "value": 1.24}, {"measurement": "FC of CETYL BENZOATE", "setting": "[1]; highest group DIAM vs MAGN", "value": 1.37}, {"measurement": "FC of Cerlapirdine", "setting": "[1]; highest group DIAM vs MAGN", "value": ">10"}, {"measurement": "FC of Ergocryptine", "setting": "[1]; highest group DIAM vs MAGN", "value": 1.92}, {"measurement": "FC of Euscaphic acid", "setting": "[1]; highest group DIAM vs MAGN", "value": 4.79}, {"measurement": "FC of Floctafenine", "setting": "[1]; highest group DIAM vs MAGN", "value": 4.41}, {"measurement": "FC of Glabric acid", "setting": "[1]; highest group DIAM vs MAGN", "value": ">10"}, {"measurement": "FC of Glycerol phenylbutyrate", "setting": "[1]; highest group DIAM vs MAGN", "value": 1.36}, {"measurement": "FC of Glycyrrhetaldehyde", "setting": "[1]; highest group DIAM vs MAGN", "value": ">10"}, {"measurement": "FC of Glycyrrhizin", "setting": "[1]; highest group DIAM vs MAGN", "value": 1.24}, {"measurement": "FC of Gypsogenin", "setting": "[1]; highest group DIAM vs MAGN", "value": 1.79}, {"measurement": "FC of N-eicosanoylsphinganine", "setting": "[1]; highest group DIAM vs MAGN", "value": 2.07}, {"measurement": "FC of N-tetracosanoylsphinganine", "setting": "[1]; highest group DIAM vs MAGN", "value": ">10"}, {"measurement": "FC of Onnamide A", "setting": "[1]; highest group DIAM vs MAGN", "value": 2.42}, {"measurement": "FC of Pinnatoxin G", "setting": "[1]; highest group DIAM vs MAGN", "value": 1.55}, {"measurement": "FC of Prednisolone sodium tetrahydrophthalic", "setting": "[1]; highest group DIAM vs MAGN", "value": 1.66}, {"measurement": "FC of Pristimerin", "setting": "[1]; highest group DIAM vs MAGN", "value": 1.26}, {"measurement": "FC of Propapyriogenin A2", "setting": "[1]; highest group DIAM vs MAGN", "value": 6.06}, {"measurement": "FC of Sampangine", "setting": "[1]; highest group DIAM vs MAGN", "value": ">10"}, {"measurement": "FC of Sphingosine-1-phosphate (d16:1)", "setting": "[1]; highest group DIAM vs MAGN", "value": 3.78}, {"measurement": "FC of Stanozolol", "setting": "[1]; highest group DIAM vs MAGN", "value": 1.81}, {"measurement": "FC of Testosterone ketolaurate", "setting": "[1]; highest group DIAM vs MAGN", "value": 1.67}, {"measurement": "FC of Tetrahydrospirilloxanthin", "setting": "[1]; highest group DIAM vs MAGN", "value": 1.29}, {"measurement": "FC of Tirilazad", "setting": "[1]; highest group DIAM vs MAGN", "value": 1.74}, {"measurement": "FC of Tisocalcitate", "setting": "[1]; highest group DIAM vs MAGN", "value": 1.39}, {"measurement": "FC of Trametenolic acid", "setting": "[1]; highest group DIAM vs MAGN", "value": ">10"}, {"measurement": "FC of Varespladib", "setting": "[1]; highest group DIAM vs MAGN", "value": 1.71}, {"measurement": "11β-HSD1 expression", "setting": "[2]", "value": "most pronounced upregulation"}, {"measurement": "liver protection rate", "setting": "[3]; 400 μM", "value": "comparable liver protection rates, which were statistically indistinguishable and surpassed that of MONO"}, {"measurement": "hepatocyte protection (therapeutic effect)", "setting": "[3]", "value": "concentration-dependent therapeutic effects"}]}
{"smiles": "CC1(C)[C@@H](O[C@H]2O[C@H](C(=O)O)[C@@H](O)[C@H](O)[C@H]2O[C@@H]2O[C@H](C(=O)O)[C@@H](O)[C@H](O)[C@H]2O)CC[C@]2(C)[C@H]3C(=O)C=C4[C@H]5C[C@@](C)(C(=O)O)CC[C@]5(C)CC[C@@]4(C)[C@]3(C)CC[C@@H]12", "note": "[MAGN, magnesium isoglycyrrhizinate]", "values": [{"measurement": "intracellular GCL levels", "setting": "[4]", "value": "significantly elevated"}, {"measurement": "GS expression", "setting": "[5]", "value": "remained comparable to DIAM-treated control"}, {"measurement": "GSH-to-GSSG ratio", "setting": "[1]; MAGN compared to DIAM", "value": "stable"}, {"measurement": "FC of Alpha-Cehc", "setting": "[1]; highest group MAGN vs DIAM", "value": 1.21}, {"measurement": "FC of Dioleoylphosphatidylserine", "setting": "[1]; highest group MAGN vs DIAM", "value": 1.92}, {"measurement": "FC of GSH", "setting": "[1]; highest group MAGN vs DIAM", "value": 1.24}, {"measurement": "FC of GSSG", "setting": "[1]; highest group MAGN vs DIAM", "value": 1.28}, {"measurement": "FC of Menaquinol-8", "setting": "[1]; highest group MAGN vs DIAM", "value": 1.68}, {"measurement": "FC of N-[(15Z)-tetracosenoyl]sphing-4-enine-1-phosphocholine", "setting": "[1]; highest group MAGN vs DIAM", "value": 2.55}, {"measurement": "FC of Solanidine", "setting": "[1]; highest group MAGN vs DIAM", "value": 1.32}, {"measurement": "liver protection rate", "setting": "[3]; 400 μM", "value": "comparable liver protection rates, which were statistically indistinguishable and surpassed that of MONO"}, {"measurement": "liver protection rate", "setting": "[3]; 600 μM", "value": "superior protective rate compared to DIAM"}, {"measurement": "hepatocyte protection (therapeutic effect)", "setting": "[3]", "value": "concentration-dependent therapeutic effects"}]}
